pEC50: −log10 of the molar value. Where a SMILES comes first, the peptide text is derived from it. [ ]: non-standard residue; d: D form. Aib = CC(C)(N)C(=O)O
Legend:
[1] = molecular target: T1, ECD of human GLP-1R (amino acids 24 to 145) (Homo sapiens, UniProt P43220); assay: GLP-1R extracellular domain binding by surface plasmon resonance; details: SPR, 1:1 kinetic binding model; representative of n=3
T1 construct: GLP-1R (amino acids 24 to 145); 6His; made in house; host or cells: CHO cells
Description: DNA encoding each protein was transfected into CHO cells for expression. After expression, the proteins were purified by affinity chromatography (HIS-Trap Ni, Cytiva) followed by size exclusion chromatography using a HiLoad 26/600 Superdex 75pg column (Cytiva) with PBS buffer. […] Surface plasmon resonance measurements were made using a Biacore T200 (Cytiva) and analyzed using T200 Evaluation Software Version 3.1. Receptor ectodomain proteins were covalently immobilized (∼250 resonance units) on Sensor Chip CM4 BR100534 using the Amine coupling Immobilization Wizard in the Biacore T200 Control Software Version 2.0.2. Running buffer was HBS-EP (10 mM Hepes, 150 mM NaCl, 3 mM EDTA, 0.05% P20 [pH 7.6]; Teknova). Concentration series for each sample were made by serial dilution in running buffer. The samples were injected for 150 sec at a 30-µL/min flow rate, followed by 300 sec of dissociation. The surface was regenerated between samples with 10 mM glycine (pH 1.7).
Fig. S10. Receptor extracellular domain (ECD) binding affinity of peptides. Purified GIPR (left column) and GLP-1R (right column) extracellular domains were immobilized to biosensor […]
mM). […]
(§1) and efficacy (% Top) of ligands to induce Gα s -GTPγS binding and cAMP accumulation in HEK293 cells expressing GIPR were determined. The equilibrium affinity (KD) of ligands for the immobilized ectodomain of the GIPR were quantified by surface plasmon resonance. […]
(§2) Functional potency (EC50) and efficacy (% Top) of ligands to induce Gα s-GTPγS binding and cAMP accumulation in HEK293 cells expressing GLP-1R were determined. The equilibrium affinity (KD) of ligands for the immobilized ectodomain of the GLP-1R were quantified by surface plasmon resonance. […]
(§3) recruitment to the GLP-1R were determined using the NanoBRET approach. The potency (EC50) and efficacy (% Top) for ligands to induce GLP-1R Internalization were determined using diffusion-enhanced resonance energy transfer. […]
relative efficacy for NanoBRET assays. SPR data were analyzed using T200 evaluation software (Cytiva). […] ND, not determined. […]

[2] = molecular target: T2, GLP-1R (Homo sapiens, UniProt P43220); assay: Ligand-induced GLP-1R internalization, SNAP-GLP-1R HEK293 cells; type: cell-based; details: for GLP-1R Internalization Top: efficacy (% Top), percent internalization compared to maximal GLP-1, (SEM)
Target sequence in this assay (P43220 24-463): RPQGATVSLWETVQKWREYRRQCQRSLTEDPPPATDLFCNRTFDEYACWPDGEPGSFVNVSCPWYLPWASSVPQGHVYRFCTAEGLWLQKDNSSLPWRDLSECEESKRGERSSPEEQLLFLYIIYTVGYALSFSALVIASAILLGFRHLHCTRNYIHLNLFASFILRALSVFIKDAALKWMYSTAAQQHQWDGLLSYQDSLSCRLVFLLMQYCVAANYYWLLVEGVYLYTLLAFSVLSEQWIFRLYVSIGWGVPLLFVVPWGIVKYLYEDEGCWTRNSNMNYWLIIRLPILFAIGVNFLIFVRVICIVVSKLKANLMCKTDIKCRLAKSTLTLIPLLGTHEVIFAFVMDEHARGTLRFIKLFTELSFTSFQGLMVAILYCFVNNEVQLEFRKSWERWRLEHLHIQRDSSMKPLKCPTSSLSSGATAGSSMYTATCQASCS

[3] = molecular target: T2, GLP-1R; assay: GLP-1R Gαs [35S]GTPγS binding, GLP-1R-expressing membranes; type: biochemical; parameters: expressed in transfected cells; host or cells: HEK293; details: for GLP-1R GTPγS Recruitment Top: efficacy (% Top), normalized to GLP-1(7-36), (SEM)
Procedure: (§4) Fig. 4. […] (B) Ligand-induced GTPγS binding of Gαs was performed using the GIPR-expressing membranes. […] (C) Agonist-stimulated cAMP production was measured in human GIPR expressing HEK293 cells. […] (E) Ligand-induced GTPγS binding of Gαs was performed using the GLP-1R-expressing membranes. […] (F) Agonist-stimulated cAMP production was measured in human GLP-1R-expressing HEK293 cells. […] Data presented are representative of n ≥ 3 independent experiments. Summarized data are shown in SI Appendix, Table 2. log M; log Molar.
(§5) We note that the albumin-binding propensity of fatty acid-modified peptides can confound a pharmacological comparison of molecules, given the common use of albumin and serum as nonspecific blocking agents in biological assays. Therefore, to obviate this, entirely albumin-free assays supplemented with bovine casein or bacitracin were used to prevent nonspecific binding ([10]). […]
(§6) Middle Panel: The affinity (Ki) of ligands for the GLP-1R was […]
as §2
(§7) SPR data were analyzed using T200 evaluation software (Cytiva). All data are presented as geometric means with SEM and n values according to established practices. ND, not determined. NA, not applicable.
Target sequence in this assay (P43220 24-463): as above

[4] = molecular target: T3, human GIPR (Homo sapiens, UniProt P48546); assay: GIPR low density cAMP accumulation in HEK293 cells; type: cell-based
T3 construct: expressed in transfected cells; host or cells: HEK293
T3 sequence (P48546 22-466): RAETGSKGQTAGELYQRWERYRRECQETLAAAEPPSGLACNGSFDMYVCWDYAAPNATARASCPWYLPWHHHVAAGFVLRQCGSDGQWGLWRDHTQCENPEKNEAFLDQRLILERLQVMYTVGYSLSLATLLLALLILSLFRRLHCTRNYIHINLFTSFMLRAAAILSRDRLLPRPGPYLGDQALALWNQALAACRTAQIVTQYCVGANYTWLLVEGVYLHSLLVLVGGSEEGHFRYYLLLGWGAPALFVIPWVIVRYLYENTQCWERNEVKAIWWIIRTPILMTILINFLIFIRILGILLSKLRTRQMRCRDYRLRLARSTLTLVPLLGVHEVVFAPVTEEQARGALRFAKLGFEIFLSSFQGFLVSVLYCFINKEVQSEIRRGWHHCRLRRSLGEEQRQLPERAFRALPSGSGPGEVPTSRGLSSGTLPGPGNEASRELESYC
Procedure: as §4
(§8) We note that the albumin-binding propensity of fatty acid-modified peptides can confound a pharmacological comparison of molecules, given the common use of albumin and serum as nonspecific blocking agents in biological assays. Therefore, to obviate this, entirely albumin-free assays supplemented with bovine casein or bacitracin were used to prevent nonspecific binding ([10]).
(§9) Functional potency (EC50)
(§10) and efficacy (% Top) of ligands to induce Gα s -GTPγS binding and cAMP accumulation in HEK293 cells expressing GIPR were determined. The equilibrium affinity (KD) of
(§11) ligands for the immobilized ectodomain of the GIPR were quantified by surface plasmon resonance. […]
(§12) SPR data were analyzed using T200 evaluation software (Cytiva). All data are presented as geometric means with SEM and n values
(§13) according to established practices. ND, not determined. NA, not applicable.

[5] = molecular target: T3, human GIPR; assay: GIPR Gαs [35S]GTPγS binding, GIPR-expressing membranes; type: biochemical
Procedure: as §4, §8, §9, §10, §11, §12, §13

[6] = molecular target: T2, GLP-1R; assay: GRK2 recruitment to the GLP-1R, NanoBRET; type: cell-based; parameters: expressed in transfected cells; host or cells: freestyle HEK cells; details: for GLP-1R GRK2 Recruitment Top: efficacy (% Top), relative to maximal GLP-1, (SEM)
Procedure: After 48 h, transfected cells were incubated in phosphate-buffered saline (PBS) containing 0.1% (wt/vol) bovine casein and varying concentrations of the ligands. […]
The potency (EC50) and efficacy (% Top) for ligands to induce GLP-1R Internalization were
determined using diffusion-enhanced resonance energy transfer.
relative efficacy for NanoBRET assays. SPR data were analyzed using T200 evaluation software (Cytiva). All data are presented as geometric means with SEM and n values
as §13
Target sequence in this assay (P43220 24-463): as the sequence (P43220 24-463) above
Target sequence in this assay (P25098 whole entry partner): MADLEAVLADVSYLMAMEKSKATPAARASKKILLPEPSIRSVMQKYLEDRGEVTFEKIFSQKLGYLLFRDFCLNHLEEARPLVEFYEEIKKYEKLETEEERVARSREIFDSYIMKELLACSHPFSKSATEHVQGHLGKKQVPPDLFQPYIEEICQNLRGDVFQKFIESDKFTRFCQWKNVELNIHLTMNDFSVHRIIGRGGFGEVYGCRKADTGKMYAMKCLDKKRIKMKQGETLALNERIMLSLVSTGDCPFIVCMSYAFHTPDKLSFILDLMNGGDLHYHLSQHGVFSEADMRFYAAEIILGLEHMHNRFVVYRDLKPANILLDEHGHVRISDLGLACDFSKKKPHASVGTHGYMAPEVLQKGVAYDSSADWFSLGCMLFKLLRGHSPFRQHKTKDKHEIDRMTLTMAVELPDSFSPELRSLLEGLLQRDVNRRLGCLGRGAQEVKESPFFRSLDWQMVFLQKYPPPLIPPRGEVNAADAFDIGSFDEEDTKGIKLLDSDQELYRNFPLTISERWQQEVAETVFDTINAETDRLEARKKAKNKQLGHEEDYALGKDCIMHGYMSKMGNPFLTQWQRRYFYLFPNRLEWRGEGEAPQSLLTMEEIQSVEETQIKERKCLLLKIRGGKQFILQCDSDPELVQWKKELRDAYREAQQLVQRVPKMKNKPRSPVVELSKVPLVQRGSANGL

[7] = molecular target: T2, GLP-1R; assay: GLP-1R low density cAMP accumulation in HEK293 cells; type: cell-based; parameters: expressed in transfected cells; host or cells: HEK293; details: for GLP-1R Low Density cAMP Top: efficacy (% Top), normalized to GLP-1(7-36), (SEM)
Procedure: as §4, §5, §6, §2, §7
Target sequence in this assay (P43220 24-463): as the sequence (P43220 24-463) above

[8] = molecular target: T2, GLP-1R; assay: β-arrestin 1 recruitment to the GLP-1R, NanoBRET; type: cell-based; parameters: expressed in transfected cells; details: efficacy (% Top), relative efficacy to GLP-1; (SEM)
Procedure: Functional potency (EC50) […]
as §1, with “resonance. Middle Panel: The affinity (Ki) of ligands for the GLP-1R was” for “resonance.”
as §2, §3
Target sequence in this assay (P43220 24-463): as above
Target sequence in this assay (P49407 whole entry partner): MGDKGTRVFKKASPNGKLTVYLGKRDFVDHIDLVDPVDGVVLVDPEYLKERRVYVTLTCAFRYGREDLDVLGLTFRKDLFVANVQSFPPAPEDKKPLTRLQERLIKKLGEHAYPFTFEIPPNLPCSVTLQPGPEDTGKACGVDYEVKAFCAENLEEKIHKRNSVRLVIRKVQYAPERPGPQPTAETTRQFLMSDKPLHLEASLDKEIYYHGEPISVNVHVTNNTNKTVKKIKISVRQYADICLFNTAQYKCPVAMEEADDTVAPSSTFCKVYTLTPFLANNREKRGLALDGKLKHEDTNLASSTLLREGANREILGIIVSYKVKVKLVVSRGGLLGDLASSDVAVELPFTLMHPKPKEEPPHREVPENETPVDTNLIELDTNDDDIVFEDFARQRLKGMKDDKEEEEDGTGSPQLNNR
relative efficacy for NanoBRET assays. SPR data were analyzed using T200 evaluation software (Cytiva). All data are presented as geometric means with SEM and n values according to established practices. ND, not determined. NA, not applicable.

[9] = efficacy (% Top), normalized to GIP(1-42), (SEM)

T1 sequence (P43220 24-145): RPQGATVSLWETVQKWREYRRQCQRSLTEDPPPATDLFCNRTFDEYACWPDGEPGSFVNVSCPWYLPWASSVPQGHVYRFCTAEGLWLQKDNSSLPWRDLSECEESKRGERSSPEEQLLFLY

Compound | GLP-1R Internalization Top [2] | GLP-1R GTPγS Recruitment Top [3] | GLP-1R GRK2 Recruitment Top [6] | GLP-1R Low Density cAMP Top [7] | GLP-1R β-Arr1 Recruitment Top [8] | also measured
CC[C@H](C)[C@H](NC(=O)[C@H](CO)NC(=O)[C@H](Cc1ccc(O)cc1)NC(=O)[C@H](CC(=O)O)NC(=O)[C@H](CO)NC(=O)[C@@H](NC(=O)[C@H](Cc1ccccc1)NC(=O)[C@@H](NC(=O)CNC(=O)[C@H](CCC(=O)O)NC(=O)[C@H](C)NC(=O)[C@@H](N)Cc1ccc(O)cc1)[C@@H](C)O)[C@@H](C)CC)C(=O)N[C@@H](C)C(=O)N[C@@H](CCSC)C(=O)N[C@@H](CC(=O)O)C(=O)N[C@@H](CCCCN)C(=O)N[C@H](C(=O)N[C@@H](Cc1c[nH]cn1)C(=O)N[C@@H](CCC(N)=O)C(=O)N[C@@H](CCC(N)=O)C(=O)N[C@@H](CC(=O)O)C(=O)N[C@@H](Cc1ccccc1)C(=O)N[C@H](C(=O)N[C@@H](CC(N)=O)C(=O)N[C@@H](Cc1c[nH]c2ccccc12)C(=O)N[C@@H](CC(C)C)C(=O)N[C@@H](CC(C)C)C(=O)N[C@@H](C)C(=O)N[C@@H](CCC(N)=O)C(=O)N[C@@H](CCCCN)C(=O)NCC(=O)N[C@@H](CCCCN)C(=O)N[C@@H](CCCCN)C(=O)N[C@@H](CC(N)=O)C(=O)N[C@@H](CC(=O)O)C(=O)N[C@@H](Cc1c[nH]c2ccccc12)C(=O)N[C@@H](CCCCN)C(=O)N[C@@H](Cc1c[nH]cn1)C(=O)N[C@@H](CC(N)=O)C(=O)N[C@H](C(=O)N[C@H](C(=O)N[C@@H](CCC(N)=O)C(N)=O)[C@@H](C)O)[C@@H](C)CC)C(C)C)[C@@H](C)CC [GIP, reference compound] | – | – | – | – | – | GLP-1R ECD kinetic KD [1]: No kinetic fit possible
CC[C@H](C)[C@H](NC(=O)[C@H](CC(C)C)NC(=O)[C@H](Cc1c[nH]c2ccccc12)NC(=O)[C@H](CCC(N)=O)NC(=O)[C@@H](NC(=O)[C@H](Cc1ccccc1)NC(=O)[C@H](C)NC(=O)[C@H](CCCCN)NC(=O)[C@H](CCC(N)=O)NC(=O)[C@H](C)NC(=O)[C@@H](NC(=O)[C@H](CCCCN)NC(=O)[C@H](CC(=O)O)NC(=O)[C@H](CC(C)C)NC(=O)C(C)(C)NC(=O)[C@@H](NC(=O)[C@H](CO)NC(=O)[C@H](Cc1ccc(O)cc1)NC(=O)[C@H](CC(=O)O)NC(=O)[C@H](CO)NC(=O)[C@@H](NC(=O)[C@H](Cc1ccccc1)NC(=O)[C@@H](NC(=O)CNC(=O)[C@H](CCC(=O)O)NC(=O)C(C)(C)NC(=O)[C@@H](N)Cc1c[nH]cn1)[C@@H](C)O)[C@@H](C)O)[C@@H](C)CC)[C@@H](C)CC)C(C)C)C(=O)N[C@@H](C)C(=O)NCC(=O)NCC(=O)N1CCC[C@H]1C(=O)N[C@@H](CO)C(=O)N[C@@H](CO)C(=O)NCC(=O)N[C@@H](C)C(=O)N1CCC[C@H]1C(=O)N1CCC[C@H]1C(=O)N1CCC[C@H]1C(=O)N[C@@H](CO)C(N)=O [Tzp ∆C20,Y1H] (H-H[Aib]EGTFTSDYSI[Aib]LDKIAQKAFVQWLIAGGPSSGAPPPS-NH2) | 101 (6) % | 88.9 (3.9) % | 84.2 (1.5 ) % | 111 (5) % | 74.6 (2.2) % | pEC50 ([2]; diffusion-enhanced resonance energy transfer, SNAP-GLP-1R HEK293 cells, 37 °C, geometric mean (SEM, n)): 8.67; pEC50 ([3]; Gαs-GTPγS binding, GLP-1R-expressing membranes, albumin-free, geometric mean (SEM, n), read-out: GLP-1R GTPγS Recruitment EC50): 9.62; pEC50 ([4]; cAMP accumulation, HEK293 cells expressing GIPR, albumin-free, geometric mean (SEM, n)): 9.17; GIPR Low Density cAMP Top [4, 9]: 80.9 (3.4) %; pEC50 ([5]; Gαs-GTPγS binding, GIPR-expressing membranes, albumin-free, geometric mean (SEM, n), read-out: GIPR GTPγS Recruitment EC50): 9.56; GIPR GTPγS Recruitment Top [5, 9]: 31.4 (6.6) %; pEC50 ([6]; NanoBRET, transfected freestyle HEK cells, PBS with 0.1% casein, geometric mean (SEM, n)): 8.51; pEC50 ([7]; cAMP accumulation, HEK293 cells expressing GLP-1R, albumin-free, geometric mean (SEM, n)): 9.79
CC[C@H](C)[C@H](NC(=O)[C@H](CC(C)C)NC(=O)[C@H](Cc1c[nH]c2ccccc12)NC(=O)[C@H](CCC(N)=O)NC(=O)[C@@H](NC(=O)[C@H](Cc1ccccc1)NC(=O)[C@H](C)NC(=O)[C@H](CCCCNC(=O)COCCOCCNC(=O)COCCOCCNC(=O)CC[C@H](NC(=O)CCCCCCCCCCCCCCCCCCC(=O)O)C(=O)O)NC(=O)[C@H](CCC(N)=O)NC(=O)[C@H](C)NC(=O)[C@@H](NC(=O)[C@H](CCCCN)NC(=O)[C@H](CC(=O)O)NC(=O)[C@H](CC(C)C)NC(=O)C(C)(C)NC(=O)[C@@H](NC(=O)[C@H](CO)NC(=O)[C@H](Cc1ccc(O)cc1)NC(=O)[C@H](CC(=O)O)NC(=O)[C@H](CO)NC(=O)[C@@H](NC(=O)[C@H](Cc1ccccc1)NC(=O)[C@@H](NC(=O)CNC(=O)[C@H](CCC(=O)O)NC(=O)C(C)(C)NC(=O)[C@@H](N)Cc1ccc(O)cc1)[C@@H](C)O)[C@@H](C)O)[C@@H](C)CC)[C@@H](C)CC)C(C)C)C(=O)N[C@@H](C)C(=O)NCC(=O)NCC(=O)N1CCC[C@H]1C(=O)N[C@@H](CO)C(=O)N[C@@H](CO)C(=O)NCC(=O)N[C@@H](C)C(=O)N1CCC[C@H]1C(=O)N1CCC[C@H]1C(=O)N1CCC[C@H]1C(=O)N[C@@H](CO)C(N)=O [Tzp, tirzepatide] | 41.6 (3.0) % | 43.9 (1.7) % | 24.7 (2.8 ) % | 99.5 (4.5) % | 7.55 (0.93) % | –
semaglutide [reference compound] | – | – | – | – | – | efficacy at inducing internalization of the GLP-1R, in words ([2]; SNAP-tagged receptor in HEK293 cells, representative of n≥3): equally efficacious

— publication PMC9060465 (Proceedings of the National Academy of Sciences of the …, 2022)
